Where two headings read alike, the source gives them in different places.
Key:
human GnRH receptor = molecular target: T1, human GnRH receptor (Homo sapiens, UniProt P30968); test: 125I-leuprorelin binding inhibition, CHO cell membrane fraction containing human GnRH receptor
T1 construct: expressed in transfected cells; host or cells: CHO (Chinese hamster ovarian) cells
T1 sequence (P30968 1-328): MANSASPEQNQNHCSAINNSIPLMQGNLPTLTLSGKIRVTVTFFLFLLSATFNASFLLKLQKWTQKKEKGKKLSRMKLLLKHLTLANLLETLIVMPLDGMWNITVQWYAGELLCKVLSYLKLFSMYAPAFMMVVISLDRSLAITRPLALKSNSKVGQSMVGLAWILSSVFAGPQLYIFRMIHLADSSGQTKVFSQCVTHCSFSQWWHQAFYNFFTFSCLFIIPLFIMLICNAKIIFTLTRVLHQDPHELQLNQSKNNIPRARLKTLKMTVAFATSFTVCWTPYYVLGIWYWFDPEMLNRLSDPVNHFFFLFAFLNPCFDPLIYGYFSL
Protocol: After stirring, 10 μl of 0.001% H2O2 was added, and a reaction was carried out at room temperature for 20 minutes. By adding 700 μl of a 0.05% TFA (trifluoroacetic acid) solution, the reaction was stopped, followed by purification by reversed-phase HPLC. […] To the cell pellet, 10 ml of a cell homogenate buffer (10 mM NaHCO3, 5 mM EDTA, pH 7.5) was added, followed by homogenization using the Polytron homogenizer. After centrifugation at 400×g for 15 minutes, the supernatant was transferred to an ultracentrifugation tube and centrifuged at 100,000×g for 1 hour to yield a membrane fraction precipitate. This precipitate was suspended in 2 ml of an assay buffer and centrifuged at 100,000×g for 1 hour. The membrane fraction recovered as a precipitate was again suspended in 20 ml of the assay buffer, dispensed, and stored at −80° C. before use upon thawing. […] Where the rat or bovine pituitary anterior lobe membrane fraction was used, the reaction was conducted at 4° C. for 90 minutes. Where the membrane fraction of the CHO with human GnRH receptors expressed was used, the reaction was carried out at 25° C. for 60 minutes. After each reaction, the reaction mixture was aspirated and filtered through a polyethyleneimine-treated Whatman glass filter (GF-F). […] The expression (TB-SB)/(TB-NSB)×100 (where SB= radioactivity with the compound added, TB=maximum bound radioactivity, NSB=nonspecifically bound radioactivity) was calculated to find the binding inhibition rate (%) of each test compound.

GnRH receptors = molecular target: T2, GnRH receptors (Rattus norvegicus, UniProt P30969); test: 125I-leuprorelin binding inhibition, rat pituitary anterior lobe membrane fraction; conditions: for IC50: Hill plot; for inhibition at 1 µM: read-out: binding inhibition rate (%) Rat (1 μM)
T2 construct: Anterior lobes of the pituitary glands were isolated from forty Wistar rats; from tissue; host or cells: anterior lobe of the pituitary gland, male Wistar rats
T2 sequence (P30969 1-327): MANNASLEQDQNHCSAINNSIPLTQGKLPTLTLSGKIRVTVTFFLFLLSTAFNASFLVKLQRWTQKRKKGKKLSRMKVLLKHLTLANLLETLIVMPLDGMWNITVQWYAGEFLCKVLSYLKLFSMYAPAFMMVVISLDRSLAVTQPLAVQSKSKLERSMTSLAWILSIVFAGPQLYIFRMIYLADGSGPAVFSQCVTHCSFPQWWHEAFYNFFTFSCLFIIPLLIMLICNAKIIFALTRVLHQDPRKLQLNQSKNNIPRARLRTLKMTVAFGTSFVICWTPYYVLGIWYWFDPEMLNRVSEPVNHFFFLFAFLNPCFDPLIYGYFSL
Protocol: After stirring, 10 μl of 0.001% H2O2 was added, and a reaction was carried out at room temperature for 20 minutes. By adding 700 μl of a 0.05% TFA (trifluoroacetic acid) solution, the reaction was stopped, followed by purification by reversed-phase HPLC. […] Anterior lobes of the pituitary glands were isolated from forty Wistar rats (8 weeks old, male), and washed with ice-cooled homogenate buffer [25 mM Tris (tris(hydroxymethyl)aminomethane)-HCl, 0.3M sucrose, 1 mM EGTA (glycol-etherdiamine-N,N,N′,N′-tetraacetic acid), 0.25 mM PMSF (phenylmethylsulfonyl fluoride), 10 U/ml aprotinin, […] pepstatin, […] leupeptin, […], 0.03% sodium azide, pH 7.5]. The pituitary tissue was floated in 2 ml of the homogenate buffer and homogenized using a Polytron homogenizer. The homogenate was centrifuged at 700×g for 15 minutes. The supernatant was taken in an ultracentrifuge tube and centrifuged at 100, 000×g for 1 hour to provide a membrane fraction pellet. This pellet was suspended in 2 ml of assay buffer [25 mM Tris-HCl, 1 mM EDTA (ethylenediaminetetraacetic acid), 0.1% BSA (bovine serum albumin), 0.25 mM PMSF, 1 mg/ml pepstatin, 20 mg/ml leupeptin, […], 0.03% sodium azide, pH 7.5) and the suspension was centrifuged at 100,000×g for 1 hour. The membrane fraction recovered as a pellet was resuspended in 10 ml of assay buffer, divided into portions, preserved at −80° C. and thawed when needed. […] Where the rat or bovine pituitary anterior lobe membrane fraction was used, the reaction was conducted at 4° C. for 90 minutes. Where the membrane fraction of the CHO with human GnRH receptors expressed was used, the reaction was carried out at 25° C. for 60 minutes. After each reaction, the reaction mixture was aspirated and filtered through a polyethyleneimine-treated Whatman glass filter (GF-F). […] The expression (TB-SB)/(TB-NSB)×100 (where SB= radioactivity with the compound added, TB=maximum bound radioactivity, NSB=nonspecifically bound radioactivity) was calculated to find the binding inhibition rate (%) of each test compound.

blood LH = test: Suppression of blood LH in castrated monkeys; type: in vivo, cynomolgus monkeys (Macaca fascicularis); conditions: castrated male cynomolgus monkeys; 30 mg/kg oral; values only in FIG. 1
Protocol: The compound produced in Example 1-2 was orally administered to castrated male cynomolgus monkeys (Macaca fascicularis), and blood LH was quantified. The male cynomolgus monkeys, used at 3 years 8 months to 7 years 7 months of age at time of experimentation, had been castrated more than half a year prior to the examination. Test animals [n =2; compound (1) and compound (2)] were given 30 mg/kg (3 ml/kg) of the compound suspended in 0.5% methyl cellulose at a final concentration of 1% by oral administration, and control animals [n=3; control (1), control (2) and control (3)] were given 3 ml/kg of the 0.5% methyl cellulose dispersant alone by oral administration. […]
Plasma LH concentrations were determined by a bioassay using mouse testicular cells. […] The testosterone concentration in the culture supernatant was determined by a radioimmunoassay (CIS Diagnostics Company), and the LH concentration in the test monkey plasma was calculated from the standard curve for the standard equine LH.
For the control (1), the control (2), and the control (3), changes over time in the LH concentrations in each animal are expressed as percent ratios to the respective reference values, which comprise the LH concentrations immediately before administration in each control animal (cynomolgus monkey). […]

[1] = rat pituitary anterior lobe membrane fraction, 125I-leuprorelin

CC(C)C(=O)c1cn(Cc2c(F)cccc2F)c2sc(-c3ccc(NC(=O)C(C)(C)O)cc3)c(CN(C)Cc3ccccc3)c2c1=O.Cl
melting point: 213 to 215 °C

CC(C)C(=O)c1cn(Cc2c(F)cccc2F)c2sc(-c3ccc(NC(=O)C(C)(C)O)cc3)c(CN(C)Cc3ccccc3)c2c1=O [Example 11-1, 4,7-dihydro-2-[4-(2-hydroxy-2-methylpropionylamino)phenyl]-7-(2,6-difluorobenzyl)-3-(N-benzyl-N-methylaminomethyl)-5-isobutyryl-4-oxothieno[2,3-b]pyridine]
melting point: 178 to 180 °C

CONC(=O)Nc1ccc(-c2sc3c(c2CN(C)Cc2ccccc2)c(=O)c(C(=O)C(C)C)cn3Cc2c(F)cccc2F)cc1.Cl
melting point: 225 to 230 °C

C[C@H](CO)C(=O)Nc1ccc(-c2sc3c(c2CN(C)Cc2ccccc2)c(=O)c(C(=O)c2ccccc2)cn3Cc2c(F)cccc2F)cc1 [Example 23]
melting point: 145 to 146 °C

CN(Cc1ccccc1)Cc1c(-c2ccc(NC(=O)C(C)(C)O)cc2)sc2c1c(=O)c(C(=O)c1ccccc1)cn2Cc1c(F)cccc1F [Example 22, 3-(N-benzyl-N-methylaminomethyl)-5-benzoyl-7-(2,6-difluorobenzyl)-4,7-dihydro-2-[4-(2-hydroxy-2-methylpropionylamino)phenyl]-4-oxothieno[2,3-b]pyridine]
melting point: 222 to 223 °C

CN(Cc1ccccc1)Cc1c(-c2ccc(NC(=O)C3(O)CC3)cc2)sc2c1c(=O)c(C(=O)c1ccccc1)cn2Cc1c(F)cccc1F [Example 21]
melting point: 186 to 188 °C

CC(C)C(=O)c1cn(Cc2c(F)cccc2F)c2sc(-c3ccc(NC(=O)[C@H](C)CO)cc3)c(CN(C)Cc3ccccc3)c2c1=O.Cl
melting point: 214 to 216 °C

CC(C)C(=O)c1cn(Cc2c(F)cccc2F)c2sc(-c3ccc(NC(=O)CO)cc3)c(CN(C)Cc3ccccc3)c2c1=O.Cl
melting point: 197 to 199 °C

CC(C)C(=O)c1cn(Cc2c(F)cccc2F)c2sc(-c3ccc(NC(=O)CC(C)(C)O)cc3)c(CN(C)Cc3ccccc3)c2c1=O.Cl
melting point: 216 to 218 °C

CC(C)C(=O)c1cn(Cc2c(F)cccc2F)c2sc(-c3ccc(NC(=O)[C@H](C)CO)cc3)c(CN(C)Cc3ccccc3)c2c1=O [Example 10-1, (R)-4,7-dihydro-2-[4-(3-hydroxy-2-methylpropionylamino)phenyl]-7-(2,6-difluorobenzyl)-3-(N-benzyl-N-methylaminomethyl)-5-isobutyryl-4-oxothieno[2,3-b]pyridine]
melting point: 161 to 162 °C

CC(C)C(=O)Nc1ccc(-c2sc3c(c2CN(C)Cc2ccccc2)c(=O)c(C(=O)C(C)(C)O)cn3Cc2c(F)cccc2F)cc1 [Example 7, 3-(N-benzyl-N-methylaminomethyl)-4,7-dihydro-7-(2,6-difluorobenzyl)-2-(4-isobutyrylaminophenyl)-5-(2-hydroxy-2-methylpropionyl)-4-oxothieno[2,3-b]pyridine]
melting point: 170 to 172 °C

CC(C)C(=O)c1cn(Cc2c(F)cccc2F)c2sc(-c3ccc(NC(=O)C4(O)CC4)cc3)c(CN(C)Cc3ccccc3)c2c1=O.Cl
melting point: 220 to 222 °C

CC(C)C(=O)c1cn(Cc2c(F)cccc2F)c2sc(-c3ccc(NC(=O)C(C)CO)cc3)c(CN(C)Cc3ccccc3)c2c1=O (stereo not shown) [Example 3, 3-(N-benzyl-N-methylaminomethyl)-4,7-dihydro-5-isobutyryl-7-(2,6-difluorobenzyl)-2-[4-(3-hydroxy-2-methylpropionylamino)phenyl]-4-oxothieno[2,3-b]pyridine]
IC50 (human GnRH receptor): 0.0002 µM | melting point: 161 to 162 °C | IC50 (GnRH receptors; [1]): 0.6 µM | inhibition at 1 µM (GnRH receptors): 62%

CC(C)C(=O)c1cn(Cc2c(F)cccc2F)c2sc(-c3ccc(NC(=O)C4CC4)cc3)c(CN(C)Cc3ccccc3)c2c1=O.Cl [Example 1-2, 3-(N-benzyl-N-methylaminomethyl)-4,7-dihydro-5-isobutyryl-7-(2,6-difluorobenzyl)-2-(4-cyclopropanecarbonylaminophenyl)-4-oxothieno[2,3-b]pyridine Hydrochloride]
plasma LH concentrations (blood LH): suppression of plasma LH concentrations | inhibition at 20 µM (human GnRH receptor; 20 μM compound, CHO membrane fraction with human GnRH receptors, 125I-leuprorelin, 25° C., 60 minutes, read-out: binding inhibition rate (%) Human (20 μM)): 102% | IC50 (human GnRH receptor; CHO membrane fraction with human GnRH receptors, 125I-leuprorelin, Hill plot, read-out: IC50 value (μM) Human): 0.0001 µM | melting point: 254 to 256 °C | inhibition at 1 µM (GnRH receptors; 1 μM compound, rat pituitary anterior lobe membrane fraction, 125I-leuprorelin, 4° C., 90 minutes): 96% | IC50 (GnRH receptors; [1]): 0.06 µM
